Measurements published in patent publication US12084473B2, “β-D-2′-deoxy-2′-α-fluoro-2′-β-C-substituted-2-modified-N6-substituted purine nucleotides for HCV treatment” (Atea Pharmaceuticals, Inc., priority 2015, dated 2024).
Read-outs that look alike come from different tables or passages of the source.

Columns and labels:
[1] = system: HCV genotype 1b luciferase reporter replicon; assay: microbe, parasite or virus in culture; assay type: cell-based; conditions: for EC95 / EC50: Hepatitis C virus; for EC95: Huh-7 luc/neo ET cells, 72 hours, luciferase, read-out: HCV Replicon EC50/EC95: EC95; for Fold increase in activity compared to parent nucleoside: Table 7; for EC50: read-out: EC50 in a replicon assay
Procedure: (§1) The plates were cultured for 24 hours prior to the addition of compounds. Six serial one half log dilutions of the test articles (high test concentration of 100.0 μM or high test concentration of 1.0 μM) and human interferon-alpha2b (high test 10.0 U/ml) were prepared in cell culture medium and added to the cultured cells in triplicate wells for each dilution. Six wells in the test plates received medium alone as an untreated control. Following 72 hours of culture in the presence of compound, one of the plates was used for the determination of cytotoxicity by staining with XTT and the other for antiviral efficacy by determination of luciferase reporter activity. Cytotoxicity and efficacy data were collected and imported into a customized Excel workbook for determination of the TC50 and EC50 values. […] The y-axis is the percent of virus control and the x-axis is the concentration of drug in μM. […] The y-axis is the percent of virus control and the x-axis is the concentration of drug in M.

[2] = Cytotoxicity by XTT staining in replicon cells; conditions: human
Procedure: as §1

[3] = system: HCV genotype 1b luciferase reporter replicon; assay: microbe, parasite or virus in culture; assay type: cell-based; conditions: Hepatitis C virus, HuH-7-Luc/Neo-ET, 72 h, read-out: HCV Replicon EC50/EC95: EC50
[4] = system: micro-patterned human hepatocyte co-cultures; assay: Human Hepatocyte Co-Cultures (HepatoPac): cytotoxicity and hepatocyte health; assay type: cell-based; conditions: for IC50: Homo sapiens, Hepatocyte
Procedure: Cytotoxicity and hepatocyte health were assessed in triplicate by measuring ALT leakage, urea production, albumin secretion and cellular ATP contents in micro-patterned human hepatocyte co-cultures (HepatoPac®, Hepregen Corporation) prepared by seeding cryopreserved human hepatocytes (single donor) and 3T3 J2 mouse fibroblasts in microtiter plates according to procedures established by Hepregen. Culture media was replaced with fresh media containing TA, test article, (0, 1, 10 or 30 μM) every 2 or 3 days through day 16. […] Cellular ATP levels were measured on days 9 and 21. ATP signals in stromal-only control cultures (murine 3T3 fibroblasts) were subtracted from those of human HepatoPac co-cultures to obtain hepatocyte-specific effects. See, Table 4, 5 and 6 below.

Row | Compound | EC95 [1] | CC50 at 72 h [2] | EC50 [3] | also measured
1 | C#C[C@@]1(F)[C@H](O)C(COP(=O)(N[C@@H](C)C(=O)OC(C)C)Oc2ccccc2)O[C@H]1n1cnc2c(N(C)C)nc(N)nc21 (stereo partly drawn) [Compound 45, isopropyl ((((R,S)-(2R,3R,4R,5R)-5-(2-amino-6-dimethylamino-9H-purin-9-yl)-4-fluoro-3-hydroxy-4-ethynyltetrahydrofuran-2-yl)methoxy)-phenoxy-phosphoryl)-L-alaninate] | 0.876 µM | 0.68 µM | 0.16 µM | –
2 | COc1nc(N)nc2c1ncn2[C@@H]1O[C@H](COP(=O)(N[C@@H](C)C(=O)OCC(C)(C)C)Oc2cccc3ccccc23)[C@@H](O)[C@@]1(C)O (some centres unmarked) [INX-189] | – | – | – | IC50 ([4]; 48 h, Table 5, Day 2, read-out: Effect on Albumin Secretion, 50% Inhibitory Concentration (IC50)): 13.6 µM; IC50 ([4]; 48 h, Table 6, Day 2, read-out: Effect on Albumin Secretion, 50% Inhibitory Concentration (IC50)): > 30 µM; IC50 ([4]; 120 h, Table 5, Day 5, read-out: Effect on Albumin Secretion, 50% Inhibitory Concentration (IC50)): 3.1 µM; IC50 ([4]; 120 h, Table 6, Day 5, read-out: Effect on Albumin Secretion, 50% Inhibitory Concentration (IC50)): 4.2 µM; IC50 ([4]; 168 h, Table 5, Day 7, read-out: Effect on Albumin Secretion, 50% Inhibitory Concentration (IC50)): 3.2 µM; IC50 ([4]; 168 h, Table 6, Day 7, read-out: Effect on Albumin Secretion, 50% Inhibitory Concentration (IC50)): 1.8 µM; IC50 ([4]; 216 h, Day 9, read-out: Effect on Cellular ATP Concentrations, 50% Inhibitory Concentration (IC50)): 8.1 µM; IC50 ([4]; 216 h, Table 5, Day 9, read-out: Effect on Albumin Secretion, 50% Inhibitory Concentration (IC50)): 2.4 µM; IC50 ([4]; 216 h, Table 6, Day 9, read-out: Effect on Albumin Secretion, 50% Inhibitory Concentration (IC50)): 1.8 µM; IC50 ([4]; 288 h, Table 6, Day 12, read-out: Effect on Albumin Secretion, 50% Inhibitory Concentration (IC50)): 1.3 µM; IC50 ([4]; 384 h, Table 6, Day 16, read-out: Effect on Albumin Secretion, 50% Inhibitory Concentration (IC50)): < 1 µM; IC50 ([4]; 504 h, Day 21, read-out: Effect on Cellular ATP Concentrations, 50% Inhibitory Concentration (IC50)): 0.1 µM; IC50 ([4]; 504 h, Table 6, Day 21, read-out: Effect on Albumin Secretion, 50% Inhibitory Concentration (IC50)): < 1 µM; cytotoxicity to human co-cultured hepatocytes (in words) ([4]; text b588): highly cytotoxic
3 | CNc1nc(NC(=O)C(C)C)nc2c1ncn2[C@@H]1O[C@H](CO)[C@@H](O)[C@@]1(C)F [Compound 15, (2R,3R,4R,5R)-5-(2-isobutyramido-6-methylamino-9H-purin-9-yl)-4-fluoro-2-(hydroxymethyl)-4-methyltetrahydrofuran-3-ol] | – | > 100 µM | > 100 µM | –
4 | CC(C)OC(=O)[C@H](C)N[P@@](=O)(OCC1O[C@@H](n2cnc3c(N(C)C4CC4)nc(N)nc32)[C@](C)(F)[C@@H]1O)Oc1ccccc1 (stereo partly drawn) [Compound 28, isopropyl ((((R)-(2R,3R,4R,5R)-5-(2-amino-6-(methylcyclopropanamino)-9H-purin-9-yl)-4-fluoro-3-hydroxy-4-methyltetrahydrofuran-2-yl)methoxy)-phenoxy-phosphoryl)-L-alaninate] | 0.076 µM | > 100 µM | 0.014 µM | –
5 | CC(C)OC(=O)[C@H](C)NP(=O)(OCC1O[C@@H](n2cnc3c(N)nc(N)nc32)[C@](C)(F)[C@@H]1O)Oc1ccccc1 (some centres unmarked) | 9.04 µM | > 100 µM | 2.1 µM | Fold increase in activity compared to parent nucleoside [1]: 3
6 | C[C@@]1(F)[C@H](O)C(CO)O[C@H]1n1cnc2c(N)nc(N)nc21 (some centres unmarked) | – | > 100 µM | 6.7 µM | –
7 | C#C[C@@]1(F)[C@H](O)[C@@H](CO)O[C@H]1n1cnc2c(NC)nc(N)nc21 [Compound 42] | 20.4 µM | > 100 µM | 4.18 µM | –
8 | C#C[C@@]1(F)[C@H](O)C(COP(=O)(N[C@@H](C)C(=O)OC(C)C)Oc2ccccc2)O[C@H]1n1cnc2c(NC)nc(N)nc21 (stereo partly drawn) [Compound 46, isopropyl ((((R,S)-(2R,3R,4R,5R)-5-(2-amino-6-methylamino-9H-purin-9-yl)-4-fluoro-3-hydroxy-4-ethynyltetrahydrofuran-2-yl)methoxy)-phenoxy-phosphoryl)-L-alaninate] | 0.961 µM | > 100 µM | 0.224 µM | –
9 | CNc1nc(N)nc2c1ncn2[C@@H]1O[C@H](CO)[C@@H](O)[C@@]1(C)F [Compound 4, (2R,3R,4R,5R)-5-(2-amino-6-(methylamino)-9H-purin-9-yl)-4-fluoro-2-(hydroxymethyl)-4-methyltetrahydrofuran-3-ol] | – | > 100 µM | 15.7 µM | EC50 ([1]; parent nucleosides): 15.7 µM
10 | CCN(C)c1nc(N)nc2c1ncn2[C@@H]1OC(COP(=O)(N[C@@H](C)C(=O)OC(C)C)Oc2ccccc2)[C@@H](O)[C@@]1(C)F (stereo partly drawn) [Compound 18, isopropyl ((((R,S)-(2R,3R,4R,5R)-5-(2-amino-6-(N-methyl-ethylamino)-9H-purin-9-yl)-4-fluoro-3-hydroxy-4-methyltetrahydrofuran-2-yl)methoxy)-phenoxy-phosphoryl)-L-alaninate] | 0.219 µM | 90 µM | 0.048 µM | –
11 | CCN(C)c1nc(N)nc2c1ncn2[C@@H]1O[C@H](CO)[C@@H](O)[C@@]1(C)F [Compound 17, (2R,3R,4R,5R)-5-(2-amino-6-(N-methyl-ethylamino)-9H-purin-9-yl)-4-fluoro-2-(hydroxymethyl)-4-methyltetrahydrofuran-3-ol] | 65.4 µM | > 100 µM | 11.5 µM | –
12 | CN(c1nc(N)nc2c1ncn2[C@@H]1O[C@H](CO)[C@@H](O)[C@@]1(C)F)C1CC1 [Compound 8, (2R,3R,4R,5R)-5-(2-Amino-6-(N-methyl-cyclopropylamino)-9H-purin-9-yl)-4-fluoro-2-(hydroxymethyl)-4-methyltetrahydrofuran-3-ol] | – | > 100 µM | 5.56 µM | –
13 | C#C[C@@]1(F)[C@H](O)C(COP(=O)(N[C@@H](C)C(=O)OC(C)C)Oc2ccccc2)O[C@H]1n1cnc2c(N(C)C3CC3)nc(N)nc21 (stereo partly drawn) [Compound 47, isopropyl ((((R,S)-(2R,3R,4R,5R)-5-(2-amino-6-(N-methylcyclopropylamino)-9H-purin-9-yl)-4-fluoro-3-hydroxy-4-ethynyltetrahydrofuran-2-yl)methoxy)-phenoxy-phosphoryl)-L-alaninate] | 1.72 µM | 1.68 µM | 0.338 µM | –
14 | CN(C)c1nc(N)nc2c1ncn2[C@@H]1O[C@H](CO)[C@@H](O)[C@@]1(C)F [Compound 6, (2R,3R,4R,5R)-5-(2-amino-6-(dimethylamino)-9H-purin-9-yl)-4-fluoro-2-(hydroxymethyl)-4-methyltetrahydrofuran-3-ol] | – | > 100 µM | 10.7 µM | EC50 ([1]; parent nucleosides): 10.7 µM
15 | CCCN(C)c1nc(N)nc2c1ncn2[C@@H]1O[C@H](CO)[C@@H](O)[C@@]1(C)F [Compound 19, (2R,3R,4R,5R)-5-(2-amino-6-(N-methyl-propylamino)-9H-purin-9-yl)-4-fluoro-2-(hydroxymethyl)-4-methyltetrahydrofuran-3-ol] | – | > 100 µM | 7.47 µM | –
16 | CNc1nc(N)nc2c1ncn2[C@@H]1OC(CO[P@](=O)(N[C@@H](C)C(=O)OC(C)C)Oc2ccccc2)[C@@H](O)[C@@]1(C)F (some centres unmarked) [Compound 5-1] | 0.282 µM | > 100 µM | 0.0551 µM | Fold increase in activity compared to parent nucleoside [1]: >280
17 | C#C[C@@]1(F)[C@H](O)[C@@H](CO)O[C@H]1n1cnc2c(N(C)C)nc(N)nc21 [Compound 41] | 25.1 µM | 21.8 µM | 0.508 µM | –
18 | CC(C)OC(=O)[C@H](C)N[P@@](=O)(OCC1O[C@@H](n2cnc3c(N(C)C)nc(N)nc32)[C@](C)(F)[C@@H]1O)Oc1ccccc1 (stereo partly drawn) [Compound 26, isopropyl ((((R)-(2R,3R,4R,5R)-5-(2-amino-6-(dimethylamino)-9H-purin-9-yl)-4-fluoro-3-hydroxy-4-methyltetrahydrofuran-2-yl)methoxy)-phenoxy-phosphoryl)-L-alaninate] | 0.057 µM | > 100 µM | 0.0351 µM | –
19 | CC(C)OC(=O)[C@H](C)NP(=O)(OCC1O[C@@H](n2cnc3c(N(C)C4CC4)nc(N)nc32)[C@](C)(F)[C@@H]1O)Oc1ccccc1 (stereo partly drawn) [Compound 9, isopropyl ((((R,S)-(2R,3R,4R,5R)-5-(2-amino-6-(N-methyl-cyclopropylamino)-9H-purin-9-yl)-4-fluoro-3-hydroxy-4-methyltetrahydrofuran-2-yl)methoxy)-phenoxy-phosphoryl)-L-alaninate] | 0.054 µM | > 100 µM | 0.0091 µM | EC50 [1]: 0.007 µM; Fold increase in activity compared to parent nucleoside [1]: >600
